The values below come from article PMC5838106, “Cathelicidin promotes inflammation by enabling binding of self-RNA to cell surface scavenger receptors” (Scientific Reports, 2018).

Where no end group is shown, it is not given here.

One assay concerns NHEKs. Nature of the assay: Immunoblotting of TBK1-AKT-IRF3 pathway and p38 MAPK phosphorylation. The class given is cell-based, human. Particulars: peptide 2.5 μM 10 minutes, then U1 RNA 2.5 μg/mL 30 minutes or 2 hours. The source says:
Figure 2 Structure and cell binding of cathelicidin and dsRNA. (a) Structures of LL37, LL34, and LL34(I20P) bound to dsRNA were solved using SAXS. SAXS data is plotted as the scattering intensity I(q) vs. the momentum transfer vector q. LL34 (blue) and LL34(I20P) (green) condense dsRNA into square lattices with first peak positions of q10 = 0.167 Å^−1 and 0.170 Å^−1, respectively. Higher order Bragg reflections due to scattering of the square lattice of LL34 and LL34(I20P) are labeled for both complexes. In comparison, LL37 (magenta) condenses dsRNA into a columnar lattice with short-ranged order, with a first peak position of q1 = 0.172 Å^−1. (b) Linear fits of Bragg peak positions indicate that LL34-dsRNA (blue) and LL34(I20P)-dsRNA (green) complexes have inter-dsRNA spacings of 3.76 nm and 3.70 nm, respectively. Each reflection corresponding to the peaks in a for LL34 and LL34(I20P) are labeled. […]
NHEKs were lysed in a denaturing lysis buffer containing 20 mM HEPES pH 7.4, 250 mM NaCl, 2 mM EDTA, and 1% SDS supplemented with completed proteinase inhibitor cocktail as well as 50 mM sodium floride, 5mM N-ethylmaleimide, 100 μM hemin chloride to maximally preserve protein post-translational modifications as described previously. […] Protein concentrations were measured by BCA protein assay kit (Thermofisher). […]
For orientation: A western blot detects proteins with antibodies after separation by electrophoresis.

Assay [1] deals with Group A streptococcus (GAS). In kind it is cell-based. How it is done: Figure 1 Inflammatory activity of cathelicidin can be dissociated from antimicrobial function (a) Transcriptomic analysis by RNASeq of primary cultures of normal human epidermal keratinocytes (NHEKs) treated with LL37 (2.5 μM) with or without U1 RNA (2.5 μg/mL) for 24 hours. Shown are gene sets induced > 2 fold over vehicle, and after treatment with LL37, U1 RNA, or the combination of LL37 + U1 RNA. (b) Gene Ontology analysis of gene sets from (a). The number of genes related to each biological process is indicated in parentheses. (c) Amino acid sequence of synthetic cathelicidin peptides used in this study. (d) Antimicrobial assay of cathelicidin peptides against group A streptococcus (GAS). GAS were incubated with various concentrations of each peptide (0–25 μM) for 6 hours, then surviving colonies counted after plating on Todd Hewitt Broth gel. (e) IFN-β1 mRNA abundance and (f) IL-6 mRNA abundance in NHEKs after treatment with cathelicidin peptides (2.5 μM) for 10 minutes, then stimulated with U1 RNA (2.5 μg/mL) for a further 6 hours. (n = 3). (g) IFN-β1 mRNA abundance and (h) IL-6 mRNA abundance in […] (PMA)-treated THP1 cells after treatment with cathelicidin peptides (3 μM) for 10 minutes, then stimulated with U1 RNA (12.5 μg/mL) overnight. (n = 3). Data presented are from one representative experiment of at least two independent experiments. […]

Take “LLGDFFRKSKEKIGKEFKRIVQRIKDFLRNLVPR [LL34]”: the “phosphorylation in the TBK1-AKT-IRF3 pathway and p38 MAPK” value with NHEKs is “increased”. Moreover, in assay [1] (6 h), the “minimal bacteriocidal concentration (MBC)” value is recorded as “ca. 5 uM”. The “antimicrobial activity against group A Streptococcus (GAS)” value in assay [1] (GAS incubated with peptide 0–25 μM for 6 hours, surviving colonies counted, Fig. 1d) is on record as “increased antimicrobial activity compared to LL37”.

On to LL37, for which the “phosphorylation in the TBK1-AKT-IRF3 pathway and p38 MAPK” value with NHEKs is listed as “increased”.
